According to PMC5362808, “Discovery of multi-target receptor tyrosine kinase inhibitors as novel anti-angiogenesis agents” (Scientific Reports, 2017):
Where two headings read alike, the source gives them in different places.

Key:
EA.hy926 = assay: MTT anti-proliferative assay against human vascular endothelial cell; format: cell-based; settings: EA.hy 926, 48 h treatment
Method: Growth inhibitory activities were evaluated against human vascular endothelial cell (EA.hy926)[25]. Thirteen selected title compounds were tested using MTT assay to assess cell proliferation. Exponentially growing cells were harvested and plated in 96-well plates at a concentration of […] cells/well, and then incubated for 24 h at 37 °C. The cells were treated with title compounds respectively at various concentrations for 48 h. Then, […] fresh MTT (5 mg/mL) was added to each well and incubated for 4 h at 37 °C. Supernatant was discarded, and […] DMSO was added to each well. Absorbance values were determined by a microplate reader (Bio-Rad Instruments) at 490 nm. The IC50 values were calculated according to inhibition ratios.

TIE-2 = TIE-2 (Homo sapiens, UniProt Q02763); assay: ADP-Glo kinase inhibition assay, TIE-2; format: biochemical
Method: (§1) Tyrosine kinase inhibition were tested by luminescent ADP-Glo^TM assay.
(§2) The kinase assay was performed in duplicate in a reaction mixture of final volume of 10 μL. […] The assay plate was incubated at 30 °C for 1 h. After the plate was cooled at room temperature for 5 min, 5 μL of ADP-Glo reagent was added into each well to stop the reaction and consume the remaining […] within 40 min. At the end, 10 μL of kinase detection reagent was added into the well and incubated for 30 min to produce a luminescence signal. […] The assay plate was incubated at 30 °C for 4 h. After the plate was cooled at room temperature for 5 min, 5 μL of ADP-Glo reagent was added into each well to stop the reaction and consume the remaining […] within 1 h. At the end, 10 μL of kinase detection reagent was added into the well and incubated for 30 min to produce a luminescence signal. The luminescence was read by VICTOR-X multi- label plate reader. The signal was correlated with the amount of […] present in the reaction and was […] with the kinase activity.

Src = Src (Homo sapiens, UniProt P12931); assay: Kinase selectivity assay, Src; format: biochemical; settings: Table 3 selectivity profile
FGFR-1 = FGFR-1 (Homo sapiens, UniProt P11362); assay: Kinase selectivity assay, FGFR-1; format: biochemical; settings: Table 3 selectivity profile
EGFR = EGFR (Homo sapiens, UniProt P00533); assay: Kinase selectivity assay, EGFR; format: biochemical; settings: Table 3 selectivity profile
VEGFR-2 = VEGFR-2 (Homo sapiens, UniProt P35968); assay: ADP-Glo kinase inhibition assay, VEGFR-2; format: biochemical; settings: read-out: VEGFR-2 inhibitory activity (IC50)
Method: as §1, §2

B-Raf = B-Raf (Homo sapiens, UniProt P15056); assay: Kinase selectivity assay, B-Raf; format: biochemical; settings: Table 3 selectivity profile
EphB4 = target: T1, EphB4 (Homo sapiens, UniProt P54760); assay: ADP-Glo kinase inhibition assay, EphB4; format: biochemical; settings: read-out: EphB4 inhibitory activity (IC50)
T1 sequence (P54760 16-987): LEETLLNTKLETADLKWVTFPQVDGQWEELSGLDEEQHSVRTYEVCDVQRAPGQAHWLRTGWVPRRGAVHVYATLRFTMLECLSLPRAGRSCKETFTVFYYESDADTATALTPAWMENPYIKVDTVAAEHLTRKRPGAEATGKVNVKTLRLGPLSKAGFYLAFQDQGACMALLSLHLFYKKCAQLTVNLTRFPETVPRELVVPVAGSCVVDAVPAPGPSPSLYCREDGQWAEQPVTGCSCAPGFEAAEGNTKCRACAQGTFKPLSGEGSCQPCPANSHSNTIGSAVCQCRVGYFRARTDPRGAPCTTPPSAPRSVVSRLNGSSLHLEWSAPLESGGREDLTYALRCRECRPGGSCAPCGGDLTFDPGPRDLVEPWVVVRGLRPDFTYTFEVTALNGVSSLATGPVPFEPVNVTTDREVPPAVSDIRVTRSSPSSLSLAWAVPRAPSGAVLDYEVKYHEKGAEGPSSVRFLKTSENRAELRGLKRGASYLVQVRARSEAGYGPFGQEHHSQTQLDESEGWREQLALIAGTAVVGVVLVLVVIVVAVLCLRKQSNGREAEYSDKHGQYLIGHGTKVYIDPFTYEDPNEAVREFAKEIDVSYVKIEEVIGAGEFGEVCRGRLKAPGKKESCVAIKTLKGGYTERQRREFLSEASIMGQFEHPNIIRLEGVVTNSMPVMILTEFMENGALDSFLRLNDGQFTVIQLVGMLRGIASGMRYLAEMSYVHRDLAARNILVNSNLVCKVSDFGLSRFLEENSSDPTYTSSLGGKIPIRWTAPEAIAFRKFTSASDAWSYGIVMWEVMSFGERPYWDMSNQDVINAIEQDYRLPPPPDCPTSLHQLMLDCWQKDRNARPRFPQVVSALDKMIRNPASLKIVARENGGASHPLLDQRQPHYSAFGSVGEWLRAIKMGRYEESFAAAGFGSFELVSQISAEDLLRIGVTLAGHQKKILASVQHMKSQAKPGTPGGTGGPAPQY
Method: as §1, §2

[1] = test system: mouse lung tissue blood vessels; assay: Tissue model for angiogenesis (TMA), lung tissue vessel sprouting; settings: 15.6 μM; observed on the 5th day
Method: A novel tissue model for angiogenesis that imitated new blood vessels formation in vivo had been established in the previous study.
Figure 8 Anti-angiogenesis potency of compound CDAU-2 in tissue model for angiogenesis (TMA). (A–F) the representative images of lung tissue blood vessels in the TMA on the 5th day; (A) the untreated control group; (B–F) lung tissue vessels in the CDAU-2 treated group; (B) 1.94 μM; (C) 3.87 μM; (D) 7.75 μM; (E) 15.6 μM; (F) 62.5 μM.
In brief, the mouse lung tissue was separated and cut into pieces (0.5–1.0 mm^3)[27]. Then pieces of lung tissue were placed onto 48-well plate coated with polymerized fibrinogen with thrombin. After consolidation, each group was incubated with 200 μL/well 1640 medium containing different concentrations of CDAU-2. Control groups were incubated with 2.5% DMSO or 1640 medium alone.

[2] = Table 1, ATP 50 μM, read-out: Tie-2 inhibitory activity (IC50)
[3] = Table 2, ATP 50 μM, read-out: TIE-2 inhibitory activity (IC50)

Chain of TIE-2 (Q02763 23-1124): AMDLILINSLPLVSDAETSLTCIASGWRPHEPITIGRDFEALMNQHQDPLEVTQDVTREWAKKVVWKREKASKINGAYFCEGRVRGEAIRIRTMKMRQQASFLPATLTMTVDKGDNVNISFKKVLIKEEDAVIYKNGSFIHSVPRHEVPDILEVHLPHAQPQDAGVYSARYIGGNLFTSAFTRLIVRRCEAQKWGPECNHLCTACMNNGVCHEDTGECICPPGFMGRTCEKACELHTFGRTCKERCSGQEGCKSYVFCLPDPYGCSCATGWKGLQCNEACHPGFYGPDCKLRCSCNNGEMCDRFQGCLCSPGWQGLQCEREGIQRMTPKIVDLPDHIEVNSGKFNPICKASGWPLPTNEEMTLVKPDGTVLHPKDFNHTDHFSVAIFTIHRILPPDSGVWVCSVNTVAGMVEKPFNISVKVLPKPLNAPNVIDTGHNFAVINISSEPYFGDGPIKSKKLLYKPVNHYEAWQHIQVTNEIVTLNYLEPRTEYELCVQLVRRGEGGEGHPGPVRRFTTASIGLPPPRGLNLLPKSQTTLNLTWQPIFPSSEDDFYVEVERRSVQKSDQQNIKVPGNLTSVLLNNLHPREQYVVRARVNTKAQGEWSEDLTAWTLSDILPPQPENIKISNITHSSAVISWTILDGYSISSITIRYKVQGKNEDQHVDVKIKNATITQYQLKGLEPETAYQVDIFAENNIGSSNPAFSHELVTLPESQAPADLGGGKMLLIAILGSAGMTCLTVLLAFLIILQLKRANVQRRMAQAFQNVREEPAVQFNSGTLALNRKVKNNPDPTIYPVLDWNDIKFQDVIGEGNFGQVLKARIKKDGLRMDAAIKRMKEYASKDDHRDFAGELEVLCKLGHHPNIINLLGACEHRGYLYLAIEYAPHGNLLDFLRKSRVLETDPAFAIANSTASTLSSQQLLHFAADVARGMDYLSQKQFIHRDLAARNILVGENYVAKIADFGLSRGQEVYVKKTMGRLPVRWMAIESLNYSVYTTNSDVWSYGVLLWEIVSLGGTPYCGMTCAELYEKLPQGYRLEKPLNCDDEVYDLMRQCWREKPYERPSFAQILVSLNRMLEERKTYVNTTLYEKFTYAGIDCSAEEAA
Chain of VEGFR-2 (P35968 20-1356): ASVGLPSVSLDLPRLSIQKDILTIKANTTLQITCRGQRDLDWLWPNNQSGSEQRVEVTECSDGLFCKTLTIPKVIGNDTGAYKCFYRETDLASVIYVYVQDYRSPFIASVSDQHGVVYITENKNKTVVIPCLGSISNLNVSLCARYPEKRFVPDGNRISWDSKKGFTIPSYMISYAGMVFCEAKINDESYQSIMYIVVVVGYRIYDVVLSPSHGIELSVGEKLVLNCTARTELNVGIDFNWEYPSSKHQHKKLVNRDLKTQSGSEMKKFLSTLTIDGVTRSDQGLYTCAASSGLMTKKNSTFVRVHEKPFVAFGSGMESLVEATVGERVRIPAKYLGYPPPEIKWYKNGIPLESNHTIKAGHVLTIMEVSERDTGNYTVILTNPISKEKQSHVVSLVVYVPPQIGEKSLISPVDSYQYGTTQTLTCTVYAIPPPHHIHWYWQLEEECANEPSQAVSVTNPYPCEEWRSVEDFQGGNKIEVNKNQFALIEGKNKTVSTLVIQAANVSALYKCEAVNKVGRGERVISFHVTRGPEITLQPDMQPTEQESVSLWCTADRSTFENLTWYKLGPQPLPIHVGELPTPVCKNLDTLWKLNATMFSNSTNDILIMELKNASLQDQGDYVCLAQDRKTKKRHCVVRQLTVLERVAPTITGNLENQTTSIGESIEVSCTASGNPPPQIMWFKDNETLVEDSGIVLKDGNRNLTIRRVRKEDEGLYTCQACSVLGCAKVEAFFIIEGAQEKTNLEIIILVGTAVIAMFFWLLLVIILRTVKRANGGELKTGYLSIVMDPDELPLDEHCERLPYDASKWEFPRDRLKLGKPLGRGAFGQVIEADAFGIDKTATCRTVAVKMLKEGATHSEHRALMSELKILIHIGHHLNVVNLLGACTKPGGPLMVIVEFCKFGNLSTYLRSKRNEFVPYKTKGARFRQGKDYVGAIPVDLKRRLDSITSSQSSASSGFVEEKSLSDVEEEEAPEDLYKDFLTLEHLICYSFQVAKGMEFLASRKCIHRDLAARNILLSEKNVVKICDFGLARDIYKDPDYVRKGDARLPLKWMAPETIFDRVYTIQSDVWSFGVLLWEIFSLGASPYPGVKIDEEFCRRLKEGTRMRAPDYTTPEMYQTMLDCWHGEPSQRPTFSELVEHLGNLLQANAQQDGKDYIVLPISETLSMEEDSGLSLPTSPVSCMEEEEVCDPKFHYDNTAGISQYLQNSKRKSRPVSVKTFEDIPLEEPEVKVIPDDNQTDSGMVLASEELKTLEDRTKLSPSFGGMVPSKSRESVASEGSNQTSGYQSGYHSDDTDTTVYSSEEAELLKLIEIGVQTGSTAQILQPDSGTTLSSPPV
Chain of B-Raf (P15056 whole entry, species assumed): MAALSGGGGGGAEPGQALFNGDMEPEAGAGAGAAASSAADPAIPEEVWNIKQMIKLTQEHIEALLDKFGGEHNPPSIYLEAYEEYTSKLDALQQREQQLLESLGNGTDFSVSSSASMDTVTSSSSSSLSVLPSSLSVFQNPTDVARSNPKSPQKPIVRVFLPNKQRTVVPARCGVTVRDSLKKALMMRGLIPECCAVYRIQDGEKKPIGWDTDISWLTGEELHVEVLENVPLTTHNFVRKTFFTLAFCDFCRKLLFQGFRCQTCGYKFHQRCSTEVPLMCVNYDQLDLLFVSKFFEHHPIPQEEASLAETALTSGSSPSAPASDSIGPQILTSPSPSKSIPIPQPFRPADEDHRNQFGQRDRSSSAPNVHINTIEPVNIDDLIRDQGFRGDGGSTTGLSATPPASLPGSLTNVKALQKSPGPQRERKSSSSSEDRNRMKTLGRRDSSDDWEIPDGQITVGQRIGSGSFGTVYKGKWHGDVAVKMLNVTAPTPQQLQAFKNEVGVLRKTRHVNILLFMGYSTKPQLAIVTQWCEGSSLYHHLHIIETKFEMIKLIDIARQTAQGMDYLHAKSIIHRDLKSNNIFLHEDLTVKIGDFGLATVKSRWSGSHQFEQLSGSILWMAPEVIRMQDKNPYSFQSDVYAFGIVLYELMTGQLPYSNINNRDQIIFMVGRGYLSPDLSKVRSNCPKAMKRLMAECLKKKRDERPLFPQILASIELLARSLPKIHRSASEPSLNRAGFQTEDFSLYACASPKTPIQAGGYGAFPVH
Chain of EGFR (P00533 25-1210, species assumed): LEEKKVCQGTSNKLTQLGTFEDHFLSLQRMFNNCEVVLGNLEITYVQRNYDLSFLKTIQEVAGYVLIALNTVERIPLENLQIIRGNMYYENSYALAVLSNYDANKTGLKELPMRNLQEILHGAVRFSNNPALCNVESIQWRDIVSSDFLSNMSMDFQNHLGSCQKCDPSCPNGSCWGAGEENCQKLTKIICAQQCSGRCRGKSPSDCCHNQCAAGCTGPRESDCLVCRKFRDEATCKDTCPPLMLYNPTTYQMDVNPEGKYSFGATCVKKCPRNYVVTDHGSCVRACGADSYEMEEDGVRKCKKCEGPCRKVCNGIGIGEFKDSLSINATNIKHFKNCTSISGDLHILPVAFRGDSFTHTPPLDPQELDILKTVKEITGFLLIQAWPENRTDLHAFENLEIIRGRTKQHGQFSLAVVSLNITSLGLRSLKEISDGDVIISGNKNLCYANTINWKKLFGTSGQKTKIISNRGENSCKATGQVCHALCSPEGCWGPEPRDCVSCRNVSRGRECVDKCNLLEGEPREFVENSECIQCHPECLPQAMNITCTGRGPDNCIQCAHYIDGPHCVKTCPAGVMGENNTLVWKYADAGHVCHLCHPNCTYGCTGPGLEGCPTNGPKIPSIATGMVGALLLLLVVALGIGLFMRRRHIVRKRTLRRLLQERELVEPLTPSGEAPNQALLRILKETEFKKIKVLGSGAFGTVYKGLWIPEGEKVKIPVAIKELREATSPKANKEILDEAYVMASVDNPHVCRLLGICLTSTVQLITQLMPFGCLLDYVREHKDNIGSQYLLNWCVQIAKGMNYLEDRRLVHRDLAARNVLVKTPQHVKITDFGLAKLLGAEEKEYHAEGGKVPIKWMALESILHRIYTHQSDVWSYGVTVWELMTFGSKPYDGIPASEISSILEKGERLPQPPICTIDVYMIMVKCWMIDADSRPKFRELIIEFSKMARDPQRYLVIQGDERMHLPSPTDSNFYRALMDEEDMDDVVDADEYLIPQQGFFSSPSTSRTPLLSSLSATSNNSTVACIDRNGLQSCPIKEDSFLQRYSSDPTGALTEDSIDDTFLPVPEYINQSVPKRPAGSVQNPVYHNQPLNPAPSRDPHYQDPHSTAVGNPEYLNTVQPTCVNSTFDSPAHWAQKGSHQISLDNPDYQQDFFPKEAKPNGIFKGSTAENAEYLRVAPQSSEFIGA
Chain of Src (P12931 whole entry, species assumed): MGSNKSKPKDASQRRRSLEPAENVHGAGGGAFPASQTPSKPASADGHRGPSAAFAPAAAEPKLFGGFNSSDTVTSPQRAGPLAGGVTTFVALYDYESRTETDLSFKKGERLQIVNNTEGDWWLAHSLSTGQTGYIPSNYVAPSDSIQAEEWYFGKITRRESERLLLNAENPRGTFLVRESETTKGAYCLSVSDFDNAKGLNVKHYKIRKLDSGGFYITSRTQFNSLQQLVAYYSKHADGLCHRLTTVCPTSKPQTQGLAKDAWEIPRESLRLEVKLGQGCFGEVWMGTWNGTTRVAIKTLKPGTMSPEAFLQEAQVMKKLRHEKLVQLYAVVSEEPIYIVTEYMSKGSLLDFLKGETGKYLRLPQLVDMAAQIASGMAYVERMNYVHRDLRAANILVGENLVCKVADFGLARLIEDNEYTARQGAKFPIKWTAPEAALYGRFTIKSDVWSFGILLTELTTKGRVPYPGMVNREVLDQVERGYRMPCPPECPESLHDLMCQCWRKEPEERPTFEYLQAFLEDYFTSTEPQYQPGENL

Row | SMILES | IC50 (EA.hy926) [µM] | IC50 (TIE-2; [2]) [µM] | IC50 (VEGFR-2; Table 1, ATP 50 μM) [µM] | IC50 (EphB4; Table 1, ATP 50 μM) [µM] | IC50 (TIE-2; [3]) [µM] | IC50 (VEGFR-2; Table 2, ATP 50 μM) [µM] | IC50 (EphB4; Table 2, ATP 50 μM) [µM] | further results
1 | O=C(Nc1ccc(-c2ccc(NC(=O)C3CC3)nc2)cc1)Nc1cccc(C(F)(F)F)c1 [CDAU-1, N-(5-(4-(3-(3-(trifluoromethyl)phenyl)ureido)phenyl)pyridin-2-yl)cyclopropanecarboxamide] | 16.1 | 0.0072 | 0.00111 | 0.00534 |  |  |  | IC50 (Src): > 0.5 µM; IC50 (FGFR-1): 0.155 µM; IC50 (EGFR): 0.204 µM; melting point: 270 to 272 °C; IC50 (B-Raf): 0.0572 µM
2 | O=C(Nc1ccc(-c2ccc(NC(=O)C3CC3)nc2)cc1)Nc1ccc(Cl)c(C(F)(F)F)c1 [CDAU-2] | 14.5 | 0.00832 | 0.00101 | 0.00511 |  |  |  | IC50 (Src): > 0.5 µM; Anti-angiogenesis potency: inhibition of vessel outgrowth from lung tissue [1]: inhibited vessels outgrew from the periphery of the lung tissues evidently; IC50 (FGFR-1): 0.317 µM; IC50 (EGFR): 0.191 µM; IC50 (B-Raf): 0.0346 µM
3 | O=C(Nc1ccc(-c2ccc(NC(=O)C3CC3)nc2)cc1)Nc1ccc(C(F)(F)F)c(C(F)(F)F)c1 [CDAU-3] | 309 | 0.0275 | 0.002 | > 1 |  |  |  | melting point: 241 to 243 °C
4 | O=C(Nc1ccc(-c2ccc(NC(=O)C3CC3)nc2)cc1)Nc1ccc(F)c(F)c1 [CDAU-4] | 85 | > 1 | 0.00142 |  |  |  |  | 
5 | O=C(Nc1ccc(-c2ccc(NC(=O)C3CC3)nc2)cc1)Nc1ccc(C(F)(F)F)c(Cl)c1 [CDAU-5] | 152 | 0.0613 | 0.00552 | > 1 |  |  |  | 
6 | O=C(Nc1ccc(-c2ccc(NC(=O)C3CC3)nc2)cc1)Nc1cccc(Cl)c1 [CDAU-6] | 880 | 0.0329 | 0.0233 | 0.948 |  |  |  | 
7 | O=C(Nc1ccc(-c2ccc(NC(=O)C3CC3)nc2)cc1)Nc1ccccc1F [CDAU-7] | 46.2 | > 1 | > 1 | > 1 |  |  |  | 
8 | O=C(Nc1ccc(OC(F)(F)F)cc1)Nc1ccc(-c2ccc(NC(=O)C3CC3)nc2)cc1 [CDAU-8] |  | > 1 | > 1 | > 1 |  |  |  | 
9 | CC(C)(C)NC(=O)Nc1ccc(-c2ccc(NC(=O)C3CC3)nc2)cc1 [CDAU-9] |  | 0.858 | > 1 | > 1 |  |  |  | 
10 | CN(C)CCNC(=O)Nc1ccc(-c2ccc(NC(=O)C3CC3)nc2)cc1 [CDAU-10] | > 1000 | > 1 | > 1 | > 1 |  |  |  | 
11 | CN(C)C(=O)Nc1ccc(-c2ccc(NC(=O)C3CC3)nc2)cc1 [CDAU-11] |  | > 1 | > 1 | > 1 |  |  |  | 
12 | O=C(Nc1ccc(-c2cccc(NC(=O)C3CC3)n2)cc1)Nc1ccc(Cl)c(C(F)(F)F)c1 [CDAU-12, N-(6-(4-(3-(4-chloro-3-(trifluoromethyl)phenyl)ureido)phenyl)pyridin-2-yl)cyclopropanecarboxamide] |  |  |  |  | > 1 | > 1 | > 1 | 
13 | Cc1ccc(NC(=O)Nc2ccc(-c3cccc(NC(=O)C4CC4)n3)cc2)cc1Cl [CDAU-13] |  |  |  |  | 0.271 | > 1 | > 1 | 
14 | O=C(Nc1ccc(F)cc1)Nc1ccc(-c2cccc(NC(=O)C3CC3)n2)cc1 [CDAU-14] |  |  |  |  | 0.0329 |  | > 1 | 
15 | CC(C)(C)c1ccc(NC(=O)Nc2ccc(-c3cccc(NC(=O)C4CC4)n3)cc2)cc1 [CDAU-15] |  |  |  |  | > 1 | 0.028 |  | 
16 | O=C(Nc1ccc(-c2cccc(NC(=O)C3CC3)n2)cc1)Nc1ccccc1Cl [CDAU-16] |  |  |  |  | > 1 | 0.0734 | > 1 | 
17 | CC(C)c1cccc(NC(=O)Nc2ccc(-c3cccc(NC(=O)C4CC4)n3)cc2)c1 [CDAU-17] | 133 |  |  |  |  | 0.063 | 0.17 | 
18 | O=C(Nc1ccc(-c2cccc(NC(=O)C3CC3)n2)cc1)Nc1cccc(Cl)c1 [CDAU-18] | 22.6 |  |  |  | 0.00492 |  | > 1 | 
19 | O=C(Nc1ccc(OC(F)(F)F)cc1)Nc1ccc(-c2cccc(NC(=O)C3CC3)n2)cc1 [CDAU-19] | 31 |  |  |  |  | 0.034 | > 1 | 
20 | O=C(Nc1ccc(-c2cccc(NC(=O)C3CC3)n2)cc1)Nc1ccc(Cl)cc1Cl [CDAU-20] | 45.7 |  |  |  | 0.0788 | 0.0427 |  | 
21 | O=C(Nc1ccc(-c2cccc(NC(=O)C3CC3)n2)cc1)Nc1cccc(C(F)(F)F)c1 [CDAU-21] | 40.5 |  |  |  | 0.0428 | 0.00627 | 0.162 | 
22 | O=C(Nc1ccc(-c2cccc(NC(=O)C3CC3)n2)cc1)Nc1ccc(F)cc1F [CDAU-22] |  |  |  |  | > 1 | > 1 |  | 
23 | O=C(Nc1ccc(-c2cccc(NC(=O)C3CC3)n2)cc1)Nc1ccccc1F [CDAU-23] |  |  |  |  | > 1 | > 1 |  | 
24 | O=C(Nc1ccc(-c2cccc(NC(=O)C3CC3)n2)cc1)Nc1cccc(F)c1 [CDAU-24] |  |  |  |  | > 1 | > 1 |  | 
25 | Cc1cccc(C)c1NC(=O)Nc1ccc(-c2cccc(NC(=O)C3CC3)n2)cc1 [CDAU-25] |  |  |  |  | > 1 |  | > 1 | 
